# Values of other authors in US20120183587A1, “FLAVONOL COMPOSITIONS” (priority 2011, published 2012).
# Details: Guglen et al., Eur. J. Clin. Pharmacol. 1975
compound,measurement,value
"O=c1c(O)c(-c2ccc(O)c(O)c2)oc2cc(O)cc(O)c12 [quercetin, 3,3′,4′,5,7-pentahydroxy-2-phenylchromen-4-one]",extent of absorption from an oral dose,about 1%
